The test deals with T1, bacterial TSPO (P. fluorescens MF37 TSPO).
T1 construct: native protein in bacterial membranes; 438 bp fragment encoding 146 residues; theoretical 17 kDa, 37 kDa band on SDS-PAGE, apparent dimer
Nature of the test: [3H]-PK […] saturation binding, Scatchard, bacterial membranes. Type of test: biochemical, Pseudomonas fluorescens. As to conditions: labelled compound; native membranes, 50 mM Tris-HCl pH 7.4; 0.6 to 59 nM tracer; non-specific with 30 µM PK 11195.

Usually Kd stands for the constant that tells how readily two partners part at equilibrium. In turn, `CCC(C)N(C)C(=O)c1cc2ccccc2c(-c2ccccc2Cl)n1` (stereo not shown) [PK 11195] registered a Kd of 920 pM.
